Measured values from US12187709B2 (Genentech, Inc., priority 2021, dated 2025).

How the values were obtained:
Cbl-b = Cbl-b (Homo sapiens (Human), UniProt Q13191); test: Cbl-b LCK Ub TR-FRET assay (Cbl-b Lck HTRF); assay type: biochemical; conditions: for IC50: Cbl-b LCK Ub TR-FRET; for fold-selectivity (Cbl-b over C-cbl): ratio C-cbl Lck HTRF IC50 / Cbl-b Lck HTRF IC50
Method in brief: (§1)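 After the ubiquitination reaction, detection mixture was added and plates incubated 20 min at room temperature before reading. IC50 values were calculated with wells lacking LCK as the low control and DMSO as the high control.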

c-Cbl (residues 47-435) = c-Cbl (residues 47-435) (Homo sapiens (Human), UniProt P22681); test: c-Cbl SPR assay; assay type: binding; conditions: 20° C.
Method: (§2) Affinity of binding to Cbl-b and c-Cbl for compounds described herein was assessed by surface plasmon resonance (SPR) according to the following protocol.
(§3) A surface capture range of 1300-1500 RU of protein was used for both isoforms.
(§4) For SPR measurements, 6 concentrations with 2 fold serial dilution were measured with blanks flanking each series for double referencing. […] SPR sensorgrams were recorded in multi-cycle kinetics format, with a contact time of 60 seconds and a flow rate of 40 μl/min, the dissociation time was varied between 120-1200 seconds aiming for 4-5 half-lives of the measured interaction.
(§5) Kinetic and affinity parameters were extracted from the multicycle kinetics data fitting to a 1:1 binding model using the Biacore™ Incyte evaluation software (Cytiva).
(§6) Chaser assay utilize a single cycle kinetics SPR experiment with a contact time of 120 seconds, a flow rate of 50 μl/min and a dissociation time of 450 seconds. Single cycle kinetics titration utilized an initial blank injection and 5 concentrations with 2 fold serial dilution with a maximum concentration of 500 nM, blanked to a preceding 6 point blank single cycle kinetics injection for double referencing.
(§7) The kd is measured independently by determining the percentage unoccupied compound binding site over time by measuring the binding of a chaser compound measured by SPR.
(§8) Chaser binding was measured by a multicycle kinetics SPR experiment using a contact time of 20 seconds, a flow rate of 30 μl/min, and a dissociation time of 120 seconds. […] The % compound bound at a given time was determined by comparison to a single injection of chaser preceding the single cycle kinetics titration defined below. % Compound Bound=(1−(RUT/RUT0))*100
(§9) The % compound bound is plotted against time in seconds and fit to a single exponential, where the exponent represents the kd of the compound-protein complex. The single cycle kinetics experiment of the compound is then fit with a fixed kd determined using the chaser.

[1] = target: Human Cbl-b (residues 40-426) (Homo sapiens (Human), UniProt Q13191); test: Cbl-b SPR assay; assay type: binding; conditions: for Fold of selectivity: C-cbl SPR Kd vs Cbl-b SPR Kd; for Kd: SPR, 20° C.
Method: as §2, §3, §4, §5, §6, §7, §8, §9

c-Cbl = c-Cbl (Homo sapiens (Human), UniProt P22681); test: C-Cbl LCK Ub TR-FRET assay (C-cbl Lck HTRF); assay type: biochemical
Method in brief: as §1

c-Cbl (residues 47-435), sequence (P22681 47-435): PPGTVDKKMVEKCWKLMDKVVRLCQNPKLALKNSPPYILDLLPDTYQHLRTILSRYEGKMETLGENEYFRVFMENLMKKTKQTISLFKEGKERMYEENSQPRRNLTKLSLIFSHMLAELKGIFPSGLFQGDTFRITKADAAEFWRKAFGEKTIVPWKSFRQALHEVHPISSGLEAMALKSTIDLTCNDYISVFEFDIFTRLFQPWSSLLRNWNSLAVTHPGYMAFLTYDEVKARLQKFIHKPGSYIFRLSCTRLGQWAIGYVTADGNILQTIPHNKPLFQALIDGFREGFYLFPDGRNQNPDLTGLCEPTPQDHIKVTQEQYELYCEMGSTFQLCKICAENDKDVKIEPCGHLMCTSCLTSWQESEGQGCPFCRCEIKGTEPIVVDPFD
c-Cbl, sequence (P22681 47-435): as above
Human Cbl-b (residues 40-426), sequence (Q13191 40-426): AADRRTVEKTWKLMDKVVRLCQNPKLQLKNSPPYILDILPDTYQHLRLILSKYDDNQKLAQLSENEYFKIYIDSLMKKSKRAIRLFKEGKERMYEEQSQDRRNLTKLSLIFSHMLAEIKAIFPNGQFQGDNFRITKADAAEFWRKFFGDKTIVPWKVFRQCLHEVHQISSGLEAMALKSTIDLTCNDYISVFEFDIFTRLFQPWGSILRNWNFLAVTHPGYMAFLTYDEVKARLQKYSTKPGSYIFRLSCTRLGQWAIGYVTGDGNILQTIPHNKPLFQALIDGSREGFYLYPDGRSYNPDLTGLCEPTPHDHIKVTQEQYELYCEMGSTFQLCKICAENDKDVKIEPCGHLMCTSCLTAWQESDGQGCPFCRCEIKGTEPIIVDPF
Cbl-b, sequence (Q13191 40-426): as above

| Structure (SMILES) | IC50 (Cbl-b) | fold-selectivity (Cbl-b over C-cbl) (Cbl-b) | Kd (c-Cbl (residues 47-435)) | Fold of selectivity [1] | Kd [1] | IC50 (c-Cbl) |
| --- | --- | --- | --- | --- | --- | --- |
| Cn1cnnc1[C@]1(c2cccc(N3Cc4c(cc(CNC5(C)CCC5)cc4C(F)(F)F)C3=O)c2)CCC(F)(F)C1 (single isomer, unassigned) [Compound 107] | 300 nM | 6.0x | 1700 nM | 6.8× | 250 nM | 1800 nM |
| Cn1cnnc1[C@@H](c1cccc(N2Cc3c(cc(CNC4(C)CCC4)cc3C(F)(F)F)C2=O)c1)C1CC(=O)C1 (single isomer, unassigned) [Compound 114] | 360 nM | 2.1 x | 610 nM | 2.1× | 290 nM | 770 nM |
| Cn1cnnc1[C@H](c1cccc(N2Cc3c(cc(CNC4(C)CCC4)cc3C(F)(F)F)C2=O)c1)C1CC(=O)C1 (single isomer, unassigned) [Compound 115] | 10 nM | 2.3x | 8.9 nM | 5.2× | 1.8 nM | 23 nM |
| CO[C@](c1cccc(N2Cc3c(cc(CNC4(C)CCC4)cc3C(F)(F)F)C2=O)c1)(c1nncn1C)C1CCC1 (single isomer, unassigned) [Compound 119] | 3600 nM | 3.6x | 2300 nM | 3.0× | 780 nM | 13000 nM |
| Cn1cnnc1[C@H](c1cccc(N2Cc3c(cc(CNC4(C)CCC4)cc3C(F)(F)F)C2=O)c1)C1CC(F)C1 (single isomer, unassigned) [Compound 127] | 410 nM | 4.1x | 4800 nM | 13× | 360 nM | 2000 nM |
| Cn1cnnc1[C@H](c1cccc(N2Cc3c(cc(CNC4(C)CCC4)cc3C(F)(F)F)C2=O)c1)C1CC(F)C1 (single isomer, unassigned) [Compound 128] | 240 nM | 4.9x | 3000 nM | 13× | 230 nM | 1300 nM |
| Cn1cnnc1[C@@H](c1cccc(N2Cc3c(cc(CNC4(C)CCC4)cc3C(F)(F)F)C2=O)c1)C1CC(F)C1 (single isomer, unassigned) [Compound 129] | 11 nM | 3.5x | 43 nM | 13× | 3.6 nM | 39 nM |
| Cn1cnnc1[C@@H](c1cccc(N2Cc3c(cc(CNC4(C)CCC4)cc3C(F)(F)F)C2=O)c1)C1CC(F)C1 (single isomer, unassigned) [Compound 130] | 5.5 nM | 1.0x | 1.6 nM | 5.3× | 0.3 nM | 5.7 nM |
| COC1CC([C@H](c2cccc(N3Cc4c(cc(CNC5(C)CCC5)cc4C(F)(F)F)C3=O)c2)c2nncn2C)C1 (single isomer, unassigned) [Compound 131] | 740 nM | 7.4x | 4500 nM | 16× | 280 nM | 5600 nM |
| COC1CC([C@H](c2cccc(N3Cc4c(cc(CNC5(C)CCC5)cc4C(F)(F)F)C3=O)c2)c2nncn2C)C1 (single isomer, unassigned) [Compound 132] | 600 nM | 8.0x | 5600 nM | 15× | 360 nM | 4800 nM |
| COC1CC([C@@H](c2cccc(N3Cc4c(cc(CNC5(C)CCC5)cc4C(F)(F)F)C3=O)c2)c2nncn2C)C1 (single isomer, unassigned) [Compound 133] | 150 nM | 4.9x | 660 nM | 7.7× | 83 nM | 730 nM |
| COC1CC([C@@H](c2cccc(N3Cc4c(cc(CNC5(C)CCC5)cc4C(F)(F)F)C3=O)c2)c2nncn2C)C1 (single isomer, unassigned) [Compound 134] | 9.8 nM | 1.8x | 13 nM | 6.6× | 1.9 nM | 17 nM |
| Cc1cnnn1[C@@H](c1cccc(N2Cc3c(cc(CNC4(C)CCC4)cc3C(F)(F)F)C2=O)c1)C1COC1 (single isomer, unassigned) [Compound 135] | 37 nM | 1.9x | 63 nM | 4.9× | 13 nM | 69 nM |
| Cn1cnnc1[C@@H](c1cccc(N2Cc3c(cc(CNC4(C)CCC4)cc3C(F)(F)F)C2=O)c1)[C@H]1C[C@H](C#N)C1 (single isomer, unassigned) [Compound 139] | 350 nM | 3.6x | 1000 nM | 4.6× | 220 nM | 1300 nM |
| Cn1cnnc1[C@@H](c1cccc(N2Cc3c(cc(CNC4(C)CCC4)cc3C(F)(F)F)C2=O)c1)[C@H]1C[C@@H](C#N)C1 (single isomer, unassigned) [Compound 140] | 830 nM | 1.9x | 850 nM | 0.88× | 980 nM | 1500 nM |
| Cn1cnnc1[C@H](c1cccc(N2Cc3c(cc(CNC4(C)CCC4)cc3C(F)(F)F)C2=O)c1)[C@H]1C[C@@H](C#N)C1 (single isomer, unassigned) [Compound 141] | 7.6 nM | 1.6x | 9.4 nM | 5.1× | 1.9 nM | 12 nM |
| Cn1cnnc1[C@H](c1cccc(N2Cc3c(cc(CNC4(C)CCC4)cc3C(F)(F)F)C2=O)c1)[C@H]1C[C@H](C#N)C1 (single isomer, unassigned) [Compound 142] | 200 nM | 1.8x | 1300 nM | 3.8× | 370 nM | 350 nM |
| Cn1cnnc1[C@@](O)(c1cccc(N2Cc3c(cc(CNC4(C)CCC4)cc3C(F)(F)F)C2=O)c1)C1COC1 (single isomer, unassigned) [Compound 143] | 62 nM | 3.1x | 220 nM | 4.3× | 58 nM | 190 nM |
| Cn1cnnc1[C@H](c1cccc(N2Cc3c(cc(CNC4(C)CCC4)cc3C(F)(F)F)C2=O)c1)C1(O)COC1 (single isomer, unassigned) [Compound 147] | 13 nM | 2.2x | 42 nM | 9.6× | 3.6 nM | 29 nM |
| Cn1cnnc1C1(c2cccc(N3Cc4c(cc([C@H](CO)NC5(C)CCC5)cc4C(F)(F)F)C3=O)c2)CCC1 (single isomer, unassigned) [Compound 148] | 9.9 nM | 4.4x | 63 nM | 6.7× | 9.3 nM | 44 nM |
| Cn1cnnc1C1(c2cccc(N3Cc4c(cc([C@@H](CO)NC5(C)CCC5)cc4C(F)(F)F)C3=O)c2)CCC1 (single isomer, unassigned) [Compound 149] | 4.9 nM | 0.82x | 1.4 nM | 4.7× | 0.3 nM | 4.1 nM |
| Cn1cnnc1C(F)(c1cccc(N2Cc3c(cc(CNC4(C)CCC4)cc3C(F)(F)F)C2=O)c1)C1COC1 (single isomer, unassigned) [Compound 150] | 9.1 nM | 1.4x | 28 nM | 8.5× | 2.9 nM | 13 nM |
| Cn1cnnc1[C@@H](c1cc(F)cc(N2Cc3c(cc(CNC4(C)CCC4)cc3C(F)(F)F)C2=O)c1)C1COC1 (single isomer, unassigned) [Compound 152] | 18 nM | 2.9x | 59 nM | 6.5× | 8.7 nM | 52 nM |
| Cn1cnnc1[C@]1(c2cccc(N3Cc4c(cc(CNC5(C)CCC5)cc4C(F)(F)F)C3=O)c2)C[C@@H]([S@+](C)[O-])C1 (single isomer, unassigned) [Compound 160] | 1300 nM | 3.9x | 1000 nM | 0.76× | 1300 nM | 5300 nM |
